SMILES strings stand for the structures. Where a SMILES comes first, the peptide text is derived from it. [ ]: non-standard residue; d: D form. The star is where a group is joined. NMeF = CN[C@@H](Cc1ccccc1)C(=O)O; Pip = O=C(O)[C@@H]1CCCCN1; ClAc = O=C(CCl)*

The results in this text go back to ChEMBL document CHEMBL6096711, “Discovery of Novel Pyrimidine Derivatives as Human Pin1 Covalent Inhibitors” (ACS Med Chem Lett, 2025).

The target in data set [1] is T1, Peptidyl-prolyl cis-trans isomerase NIMA-interacting 1 (Homo sapiens, UniProt Q13526). The experiment in a line: Inhibition of human Pin1 extracted from Escherichia coli BL21 (DE3) cells using TAMRA labelled Bth-(D-Thr(PO3H2))-Pip-Nal-NH2 peptide probe as substrate by fluorescence polarization assay.
In a further data set the test system is MCF7. The experiment in a line: cells. Conditions: Homo sapiens, MCF7, 96 h.
In a further data set the test system is HCT-116. Description: cells. Conditions: Homo sapiens, HCT-116, 96 h.
Data set [2] addresses T1, Peptidyl-prolyl cis-trans isomerase NIMA-interacting 1. Description: Inhibition of human Pin1 using Suc-Ala-Glu-Pro-Phe04-nitroanilide as peptide substrate preincubated for 14 hrs followed by substrate addition and measured immediately by chymotrypsin-coupled PPIase assay.
The nature of data set [3]: Stability in mouse liver microsomes assessed as half life. In kind it is ADME, Microsome.

T1 sequence (Q13526 whole entry): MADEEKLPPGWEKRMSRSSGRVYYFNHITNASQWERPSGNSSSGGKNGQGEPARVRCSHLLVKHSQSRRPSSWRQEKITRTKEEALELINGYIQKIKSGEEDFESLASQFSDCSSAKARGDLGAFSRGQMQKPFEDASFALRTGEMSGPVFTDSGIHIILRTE
Description for HCT-116: Antitumor activity against human HCT-116 cells assessed as inhibition of cell growth measured after 96 hrs by MTT assay
Description for MCF7: Antitumor activity against human MCF7 cells assessed as inhibition of cell growth measured after 96 hrs by MTT assay

Consider `CC(C)(C)CN(C(=O)CCl)C1CCS(=O)(=O)C1` (configuration not stated), for which the 50% inhibitory concentration (IC50) in data set [1] is 0.12 µM; with MCF7 it was greater than 100 µM; in the data set on HCT-116 it was 7.54 µM; in data set [2] it was 0.12 µM.

`O=[N+]([O-])c1cnc(Cl)nc1N(CC1CCCCC1)C1CCS(=O)(=O)C1` (configuration not stated): the 50% inhibitory concentration (IC50) in data set [1] was 101 µM.

As for `CCOC(=O)[C@H](CCCNC(=N)N)NC(=O)[C@H](Cc1c[nH]c2ccccc12)NC(=O)[C@@H]1CCCCN1C(=O)[C@H](Cc1ccccc1)N(C)C(=O)CCl` (ClAc-[NMeF][Pip]WR-OEt), in data set [3], the half-life was 1.2 min.

`O=[N+]([O-])c1cnc(N(Cc2ccc3ccccc3c2)C2CCS(=O)(=O)C2)nc1Cl` (configuration not stated): the half-inhibitory concentration (IC50) in the data set on MCF7 is 3.94 µM; with HCT-116, greater than 100 µM.

Turning to `O=[N+]([O-])c1cnc(Cl)nc1N(Cc1cccc2ccccc12)C1CCS(=O)(=O)C1` (configuration not stated), the IC50 in the data set with MCF7 is greater than 100 µM; with HCT-116, 5.04 µM.

In the case of `O=[N+]([O-])c1cnc(Cl)nc1N(Cc1ccc(-c2cccc3ccoc23)s1)C1CCS(=O)(=O)C1` (configuration not stated), the IC50 is 4.24 µM in the data set on MCF7 and 2.6 µM with HCT-116.

With `O=[N+]([O-])c1cnc(N(Cc2coc3ccccc23)C2CCS(=O)(=O)C2)nc1Cl` (configuration not stated), the IC50 in the data set with MCF7 was 5.26 µM; in the data set with HCT-116 it was greater than 100 µM.

In turn, `O=S1(=O)CCC(Nc2nc(Cl)nc(Cl)n2)C1` (configuration not stated) gave an IC50 in data set [1] of 144 µM.

`O=[N+]([O-])c1cnc(Cl)nc1N(Cc1ccc(-c2ccc3ccccc3c2)s1)C1CCS(=O)(=O)C1` (configuration not stated): the half-maximal inhibitory concentration (IC50) amounted to 4.95 µM with MCF7 and 3.35 µM in the data set with HCT-116.

A word on the IC50: it is the concentration that gives 50% inhibition. A low value points to higher potency. As usually defined, the half-life is how long it takes for the measured level to halve.
